The text below walks through data of patent US10239838B2, “Heteroaryl orexin receptor antagonists” (Merck Sharp & Dohme Corp., priority 2014, dated 2019).

Some results are limits rather than exact numbers.

As usually defined, the IC50 is the concentration needed to halve the response being measured.

In one assay the target is human orexin-2 receptor (Homo sapiens (Human), UniProt O43614). Nature of the assay: FLIPR Ca2+ Flux Assay, orexin-2 receptor. In kind it is cell-based. As to conditions: CHO cells expressing the human orexin-2 receptor; agonist 70 pM Ala-6,12 orexin-A; read-out: hOX2R FLIPR IC50. On the procedure:
In a typical experiment the OX1 and OX2 receptor antagonistic activity of the compounds of the present invention was determined in accordance with the following experimental method. For intracellular calcium measurements, Chinese hamster ovary (CHO) cells expressing the rat orexin-1 receptor or the human orexin-2 receptor, are grown in Iscove's modified DMEM containing 2 mM L-glutamine, […], 1% hypoxanthine-thymidine supplement, 100 U/ml penicillin, 100 μg/ml streptomycin and 10% heat-inactivated fetal calf serum (FCS). The cells are seeded at 20,000 cells/well into Becton-Dickinson black 384-well clear bottom sterile plates coated with poly-D-lysine. All reagents were from GIBCO-Invitrogen Corp. The seeded plates are incubated overnight at 37° C. and 5% CO2. Ala-6,12 human orexin-A as the agonist is prepared as a 1 mM stock solution in 1% bovine serum albumin (BSA) and diluted in assay buffer (HBSS containing 20 mM HEPES, 0.1% BSA and 2.5 mM probenecid, pH7.4) for use in the assay at a final concentration of 70 pM. Test compounds are prepared as 10 mM stock solution in DMSO, then diluted in 384-well plates, first in DMSO, then assay buffer. On the day of the assay, cells are washed 3 times with 100 μl assay buffer and then incubated for 60 min (37° C., 5% CO2) in 60 μl assay buffer containing 1 μM Fluo-4 AM ester, 0.02% pluronic acid, and 1% BSA. The dye loading solution is then aspirated and cells are washed 3 times with 100 μl assay buffer. 30 μl of that same buffer is left in each well. Within the Fluorescent Imaging Plate Reader (FLIPR, Molecular Devices), test compounds are added to the plate in a volume of 25 μl, incubated for 5 min and finally 25 μl of agonist is added. Fluorescence is measured for each well at 1 second intervals for 5 minutes and the height of each fluorescence peak is compared to the height of the fluorescence peak induced by 70 pM Ala-6,12 orexin-A with buffer in place of antagonist. […] Alternatively, compound potency can be assessed by a radioligand binding assay (described in Bergman et. al. Bioorg. Med. Chem. Lett. 2008, 18, 1425-1430) in which the inhibition constant (Ki) is determined in membranes prepared from CHO cells expressing either the OX1 or OX2 receptor. The intrinsic orexin receptor antagonist activity of a compound which may be used in the present invention may be determined by these assays.
On the technique in general: Calcium flux is commonly read through the fluorescence of an indicator in the cells.

The target of a further assay is hOX1R (Homo sapiens, UniProt O43613). Nature of the assay: FLIPR Ca2+ Flux Assay, orexin-1 receptor. In kind it is cell-based. As to conditions: CHO cells expressing orexin-1 receptor; agonist 70 pM Ala-6,12 orexin-A.

human orexin-2 receptor, sequence (O43614 whole entry): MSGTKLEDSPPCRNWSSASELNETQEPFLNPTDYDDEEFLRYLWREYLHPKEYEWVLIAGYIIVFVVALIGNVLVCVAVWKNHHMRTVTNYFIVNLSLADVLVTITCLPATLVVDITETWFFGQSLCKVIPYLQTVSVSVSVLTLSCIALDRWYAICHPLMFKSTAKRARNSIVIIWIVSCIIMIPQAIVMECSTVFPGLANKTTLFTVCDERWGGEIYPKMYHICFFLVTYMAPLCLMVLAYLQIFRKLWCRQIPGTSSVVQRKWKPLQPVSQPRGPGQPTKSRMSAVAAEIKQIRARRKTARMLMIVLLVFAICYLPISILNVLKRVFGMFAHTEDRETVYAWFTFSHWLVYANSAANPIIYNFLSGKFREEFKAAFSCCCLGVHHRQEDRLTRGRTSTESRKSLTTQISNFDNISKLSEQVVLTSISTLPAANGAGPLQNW

Regarding `CCN(CCc1ccnc(C(C)(C)O)c1)C(=O)c1ccccc1-n1nccn1` [Example 37, N-Ethyl-N-{2-[2-(1-hydroxy-1-methylethyl)pyridin-4-yl]ethyl}-2-(2H-1,2,3-triazol-2-yl)benzamide], the figures for the IC50 on human orexin-2 receptor and at hOX1R were 124 nM and above 10 µM, respectively.
In the same order, the values of `CCN(CCc1cncc(C(C)(C)O)c1)C(=O)c1ccccc1-n1nccn1` [Example 38, N-Ethyl-N-{2-[5-(1-hydroxy-1-methylethyl)pyridin-3-yl]ethyl}-2-(2H-1,2,3-triazol-2-yl)benzamide] are 152 nM and above 10 µM.
In the case of `CCN(CCc1cncc(C(C)(C)O)n1)C(=O)c1ccccc1-n1nccn1` [Example 39, N-Ethyl-N-{2-[6-(1-hydroxy-1-methylethyl)pyrazin-2-yl]ethyl}-2-(2H-1,2,3-triazol-2-yl)benzamide], the results for the IC50 on human orexin-2 receptor and at hOX1R were 68 nM and above 10 µM, respectively.
`CCN(CCc1ccnc(C(C)(C)O)n1)C(=O)c1ccccc1-n1nccn1` [Example 40, N-Ethyl-N-(2-(2-(2-hydroxypropan-2-yl)pyrimidin-4-yl)ethyl)-2-(2H-1,2,3-triazol-2-yl)benzamide]: the results for the IC50 at human orexin-2 receptor and at hOX1R were 74 nM and above 10 µM, respectively.
The matching figures for `CCN(CCc1ncc(C(C)(C)O)cn1)C(=O)c1ccccc1-n1nccn1` [Example 41, N-Ethyl-N-(2-(5-(2-hydroxypropan-2-yl)pyrimidin-2-yl)ethyl)-2-(2H-1,2,3-triazol-2-yl)benzamide]: 86 nM and 3.23 µM.
In the same order, the values of `CCN(CCc1nccc(C(C)O)n1)C(=O)c1ccccc1-n1nccn1` (centres unmarked) [Example 43, N-Ethyl-N-(2-(4-(1-hydroxyethyl)pyrimidin-2-yl)ethyl)-2-(2H-1,2,3-triazol-2-yl)benzamide] are 165 nM and above 10 µM.
In the same order, the values of `CCN(CCc1nccc(C(C)(C)O)n1)C(=O)c1ccccc1-n1nccn1` [Example 44, N-Ethyl-N-(2-(4-(2-hydroxypropan-2-yl)pyrimidin-2-yl)ethyl)-2-(2H-1,2,3-triazol-2-yl)benzamide] are 58 nM and above 10 µM.
As to `CCN(CCc1cnc(C(C)(C)O)cn1)C(=O)c1ccccc1-n1nccn1` [Example 46, N-Ethyl-N-(2-(5-(2-hydroxypropan-2-yl)pyrazin-2-yl)ethyl)-2-(2H-H-1,2,3-triazol-2-yl)benzamide], the results for the IC50 at human orexin-2 receptor and on hOX1R were 170 nM and above 10 µM, respectively.
In the same order, the values of `CCN(CCc1cc(C)c(C(C)(C)O)cn1)C(=O)c1ccccc1-n1nccn1` [Example 47, N-Ethyl-N-(2-(5-(2-hydroxypropan-2-yl)-4-methylpyridin-2-yl)ethyl)-2-(2H-1,2,3-triazol-2-yl)benzamide] are 16 nM and 1.56 µM.
As to `CCN(CCc1ccc(C)c(C(C)(C)O)n1)C(=O)c1ccccc1-n1nccn1` [Example 48, N-Ethyl-N-(2-(6-(2-hydroxypropan-2-yl)-5-methylpyridin-2-yl)ethyl)-2-(2H-1,2,3-triazol-2-yl)benzamide], the IC50 came out at 6 nM on human orexin-2 receptor and 0.791 µM on hOX1R.
In the same order, the values of `CCN(CCc1ccc(C(C)(C)O)cn1)C(=O)c1cccnc1-n1cccn1` [Example 49, N-Ethyl-N-{2-[5-(1-hydroxy-1-methylethyl)pyridin-2-yl]ethyl}-2-(1H-pyrazol-1-yl)pyridine-3-carboxamide] are 252 nM and above 10 µM.
The matching figures for `CCN(CCc1ccc(C(C)(C)O)cn1)C(=O)c1ccccc1OC(F)(F)F` [Example 50, N-ethyl-N-{2-[5-(1-hydroxy-1-methylethyl)pyridin-2-yl]ethyl}-2-(trifluoromethoxy)benzamide]: 239 nM and above 10 µM.
The matching figures for `CCN(CCc1ccc(C(C)(C)O)cn1)C(=O)c1ccccc1N1CCCC1` [Example 51, N-ethyl-N-{2-[5-(1-hydroxy-1-methylethyl)pyridin-2-yl]ethyl}-2-pyrrolidin-1-ylbenzamide]: 76 nM and above 10 µM.
As to `CCN(CCc1ccc(C(C)(C)O)cn1)C(=O)c1ccccc1-n1cccn1` [Example 53, N-ethyl-N-{2-[5-(1-hydroxy-1-methylethyl)pyridin-2-yl]ethyl}-2-(1H-pyrazol-1-yl)benzamide], the IC50 was 183 nM on human orexin-2 receptor and above 10 µM at hOX1R.
The matching figures for `CCN(CCc1ccc(C(C)(C)O)cn1)C(=O)c1ccccc1CC(F)(F)F` [Example 54, N-ethyl-N-{2-[5-(1-hydroxy-1-methylethyl)pyridin-2-yl]ethyl}-2-(2,2,2-trifluoroethyl)benzamide]: 440 nM and above 10 µM.
The matching figures for `CCN(CCc1ccc(C(C)(C)O)cn1)C(=O)c1ccccc1-n1ncnn1` [Example 55, N-ethyl-N-{2-[5-(1-hydroxy-1-methylethyl)pyridin-2-yl]ethyl}-2-(2H-tetrazol-2-yl)benzamide]: 388 nM and above 10 µM.
With `CCN(CCc1ccc(C(C)(C)O)cn1)C(=O)c1cccnc1OCC(F)(F)F` [Example 56, N-ethyl-N-{2-[5-(1-hydroxy-1-methylethyl)pyridin-2-yl]ethyl}-2-(2,2,2-trifluoroethoxy)pyridine-3-carboxamide], the values for the IC50 at human orexin-2 receptor and on hOX1R were 430 nM and above 10 µM, respectively.
Take `CCOc1ccccc1C(=O)N(CC)CCc1ccc(C(C)(C)O)cn1` [Example 57, 2-ethoxy-N-ethyl-N-{2-[5-(1-hydroxy-1-methylethyl)pyridin-2-yl]ethyl}benzamide]: the values for the IC50 at human orexin-2 receptor and on hOX1R were 547 nM and above 10 µM, respectively.
On to `CCN(CCc1ccc(C(C)(C)O)cn1)C(=O)c1cccnc1-c1ccccc1` [Example 58, N-ethyl-N-{2-[5-(1-hydroxy-1-methylethyl)pyridin-2-yl]ethyl}-2-phenylpyridine-3-carboxamide], for which the results for the IC50 at human orexin-2 receptor and on hOX1R were 334 nM and above 10 µM, respectively.
Turning to `CCN(CCc1ccc(C(C)(C)O)cn1)C(=O)c1ccc(OC)nc1C1CC1` [Example 59, 2-cyclopropyl-N-ethyl-N-{2-[5-(1-hydroxy-1-methylethyl)pyridin-2-yl]ethyl}-6-methoxypyridine-3-carboxamide], the figures for the IC50 on human orexin-2 receptor and on hOX1R were 55 nM and above 10 µM, respectively.
In the same order, the values of `CCN(CCc1ccc(C(C)(C)O)cn1)C(=O)c1ccccc1C1CC1` [Example 60, 2-cyclopropyl-N-ethyl-N-{2-[5-(1-hydroxy-1-methylethyl)pyridin-2-yl]ethyl}benzamide] are 244 nM and above 10 µM.
In the same order, the values of `CCN(CCc1ccc(C(C)(C)O)cn1)C(=O)c1ccc(F)cc1-n1nccn1` [Example 61, N-ethyl-4-fluoro-N-{2-[5-(1-hydroxy-1-methylethyl)pyridin-2-yl]ethyl}-2-(2H-1,2,3-triazol-2-yl)benzamide] are 26 nM and above 10 µM.
In the same order, the values of `CCN(CCc1ccc(C(C)(C)O)cn1)C(=O)c1ccccc1C1CCC1` [Example 62, 2-cyclobutyl-N-ethyl-N-{2-[5-(1-hydroxy-1-methylethyl)pyridin-2-yl]ethyl}benzamide] are 62 nM and above 10 µM.
For the compound `CCN(CCc1ccc(C(C)(C)O)cn1)C(=O)c1ccccc1C1CC1(F)F` (centres unmarked) [Example 63, 2-(2,2-difluorocyclopropyl)-N-ethyl-N-{2-[5-(1-hydroxy-1-methylethyl)pyridin-2-yl]ethyl}benzamide], the half-inhibitory concentration (IC50) was 38 nM on human orexin-2 receptor and above 10 µM at hOX1R.
The matching figures for `CCN(CCc1ccc(C(C)(C)O)cn1)C(=O)c1cccnc1OCC(F)F` [Example 64, 2-(2,2-difluoroethoxy)-N-ethyl-N-{2-[5-(1-hydroxy-1-methylethyl)pyridin-2-yl]ethyl}pyridine-3-carboxamide]: 337 nM and above 10 µM.
